The text below walks through data of publication PMC6874132, “Biosensors Show the Pharmacokinetics of S-Ketamine in the Endoplasmic Reticulum” (Frontiers in Cellular Neuroscience, 2019).

“And” between values parts separate entries of the source, which are not always exact repeats. Equal values may be shown once. Some results are limits rather than exact numbers.

In data set [1] the test system is iSketSnFR constructs. As to the kind of experiment: Activation of the iSketSnFR constructs by a permanently charged analog. Format: biochemical. As for the experimental part:
(§1) Biosensors selected for further study were purified with the His6 sequence included in the bacterial expression vector (Shivange et al., [2019]). Proteins were purified by immobilization in phosphate-buffered saline (PBS), pH 7.4, and elution in an imidazole gradient (10–200 mM). Proteins were concentrated by centrifugation through a 30 kDa cut off column, and by dialysis against PBS. The dialyzed protein was quantified using a nanodrop spectrofluorometer, and 50 or (preferably) 100 nM was used in dose-response studies to characterize responses to various ligands. Dose-response relations for ligands were conducted with the plate reader. The pH-dependent dose-response studies with purified iSketSnFR constructs were performed using 3× PBS buffers.
The permanently charged nicotine analog, N’-methylnicotinium, previously provided additional insights for the iNicSnFR family (Shivange et al., [2019]).

Data set [2] concerns iSketSnFR1 (AK2). Put plainly: Dose-response of purified iSketSnFR1 (AK2) biosensor fluorescence. Format: biochemical. As to the method: (§2) A Tecan Spark M10 96-well fluorescence plate reader (equipped with appropriate filters) was used to measure resting and S-ketamine-induced fluorescence (F0 and ΔF, respectively). Bacterial lysates were tested with excitation at 485 nm and emission at 535 nm. Promising clones were amplified and sequenced.
as §1
(§3) We introduce a convenient metric to summarize progress in evolving increasingly sensitive fluorescent biosensors for drugs. The metric, the S-slope, is especially appropriate for low drug concentrations because it corresponds to the relationship between [drug] and ΔF at the beginning of the dose-response relation. We define the S-slope for use with intensity-based drug biosensors:
(§4) S−slope = Δ(F/F0)/(Δ[drug]).
(§5) We state the S-slope in units of μM^−1.
(§6) This article uses the S-slope for measurements on S-ketamine biosensors in bacterial lysates, with purified proteins, and expressed in cells. […] In this case, we calculated (as in Figure 2A below),

Data set [3] relates to iSketSnFR2 (AK8). As to the kind of experiment: Dose-response of purified iSketSnFR2 (AK8) biosensor fluorescence. The data set is classed as biochemical. As for the experimental part:
as §2, §1, §3, §4, §5, §6

Data set [4] concerns AK1. Put plainly: S-ketamine dose-response of biosensor construct AK1. The following applies: at 1 μM S-ketamine; Gly residue at position 357. The data set is classed as biochemical.
Description: Starting with the iNicSnFR biosensor constructs (Shivange et al., [2019]), we constructed and measured ~3,000 mutants, in iterative rounds of site-saturated mutagenesis (SSM). We utilized the Quikchange mutagenesis protocol (Agilent), including a mixture of three primers, creating 22 unique codons encoding the 20 canonical amino acids (Kille et al., [2013]). The 22-codon procedure yields an estimated >96% residue coverage for a collection of 96 randomly chosen clones.
A Tecan Spark M10 96-well fluorescence plate reader (equipped with appropriate filters) was used to measure resting and S-ketamine-induced fluorescence (F0 and ΔF, respectively). Bacterial lysates were tested with excitation at 485 nm and emission at 535 nm. Promising clones were amplified and sequenced. […]
Biosensors selected for further study were purified with the His6 sequence included in the bacterial expression vector (Shivange et al., [2019]). […] The dialyzed protein was quantified using a nanodrop spectrofluorometer, and 50 or (preferably) 100 nM was used in dose-response studies to characterize responses to various ligands. Dose-response relations for ligands were conducted with the plate reader. […]
as §6

For data set [5], the system named is iSketSnFR1_PM or iSketSnFR1_ER. Put plainly: Time-resolved fluorescence in Neuro2a cells transfected with iSketSnFR1 constructs. The note with it: 20 s pulses (Figure 4), read-out: half-maximal concentration of S-ketamine. Format: cell-based. The source says:
(§7) We constructed two variants of the iSKetSnFR1 and iSketSnFR2 biosensors for expression in mammalian cells. The plasma membrane (_PM) and endoplasmic reticulum (_ER) variants were constructed by a circular polymerase extension cloning procedure. For iSketSnFR1_PM and iSKetSnFR2_PM, we cloned the bacterial constructs into pCMV(MinDis), a variant of pDisplay (Invitrogen, Carlsbad, CA, USA) lacking the hemagglutinin tag (Marvin et al., [2013]). We modified the previous transmembrane domain (Shivange et al., [2019]) as follows. […]
(§8) We find that signals with the iSKetSnFR constructs have brightness similar to those of the previous iNicSnFR cpGFP-based biosensors for nicotine (Shivange et al., [2019]), but the dynamic range is somewhat lower for the iKetSnFRs. […] Fluorescence measurements at λex = 470 nm have been described (Shivange et al., [2019]). […] PM-directed constructs were measured with a region of interest (ROI) that included only the cell periphery.
(§9) Solutions were delivered from elevated reservoirs by gravity flow, through solenoid valves (Automate Scientific, Berkeley, CA, USA), then through tubing fed into a manifold, at a rate of 1–2 ml/min. […] As usual in fluorescence imaging experiments, we excluded data from the brightest cells, because these may have fluorescent impurities or aggregates that produce a rapidly bleaching baseline. […]

In data set [6] the test system is iSketSnFR2_PM. Put plainly: Time-resolved fluorescence in Neuro2a cells transfected with iSketSnFR2_PM. The data set is classed as cell-based.
Description: as §7, §8, §9

Data set [7] relates to iSketSnFR2_ER. As to the kind of experiment: Time-resolved fluorescence in Neuro2a cells transfected with iSketSnFR2_ER. Format: cell-based.
Description: as §7, §8, §9

In data set [8] the test system is iSketSnFR1_PM. As to the kind of experiment: Time-resolved fluorescence in iPSC-derived dopaminergic neurons transfected with iSketSnFR1_PM. The note with it: Figure 6C, dopaminergic neurons differentiated from iPSCs, average of five cells. Format: cell-based, human.
Description: as §7, with “follows. We replaced the terminal KKPR of the PDGF receptor (a putative ER retention motif) with KYLQKRRERRRQ (a p14 Golgi export motif) and ENANSFCYENEVAL (a putative Kir2.X ER export motif).” for “follows.”
(§10) Fujifilm CDI^2 (formerly named Cellular Dynamics International, Madison WI, USA), furnished iCell DopaNeurons. […] The supplier has measured that 89% of the cells are positive for tyrosine hydroxylase by fluorescence-activated cell sorting. […]
(§11) We find that signals with the iSKetSnFR constructs have brightness similar to those of the previous iNicSnFR cpGFP-based biosensors for nicotine (Shivange et al., [2019]), but the dynamic range is somewhat lower for the iKetSnFRs. […] Fluorescence measurements at λex = 470 nm have been described (Shivange et al., [2019]). […] PM-directed constructs were measured with a region of interest (ROI) that included only the cell periphery. […]

The subject of data set [9] is iSketSnFR1_ER. As to the kind of experiment: Time-resolved fluorescence in iPSC-derived dopaminergic neurons transfected with iSketSnFR1_ER. The data set is classed as cell-based, human. The note with it: Figure 6C, dopaminergic neurons differentiated from iPSCs, average of five cells.
Description: as §7, with “follows. We replaced the terminal KKPR of the PDGF receptor (a putative ER retention motif) with KYLQKRRERRRQ (a p14 Golgi export motif) and ENANSFCYENEVAL (a putative Kir2.X ER export motif).” for “follows.”
as §10, §11

Data set [10] deals with iNicSnFR1, iNicSnFR2, and iNicSnFR3a, as well as 12 other biosensors in the series. Put plainly: Fluorescence test against iNicSnFR biosensors. The data set is classed as biochemical. The following applies: at concentrations <100 μM. As to the method:
A Tecan Spark M10 96-well fluorescence plate reader (equipped with appropriate filters) was used to measure resting and S-ketamine-induced fluorescence (F0 and ΔF, respectively). Bacterial lysates were tested with excitation at 485 nm and emission at 535 nm. Promising clones were amplified and sequenced. The most sensitive construct in each round of SSM was used as a template for the next round of SSM.
We tested S-ketamine and R-ketamine (Figure 1) against iNicSnFR1, iNicSnFR2, and iNicSnFR3a, as well as against 12 other biosensors in the series that led to the iNicSnFRs (Shivange et al., [2019]).

The subject of data set [11] is endoplasmic reticulum (ER). As to the kind of experiment: Subcellular pharmacokinetics: S-ketamine in the endoplasmic reticulum measured with ER- and PM-targeted biosensors. The following applies: Neuro2a cells and human dopaminergic neurons differentiated from iPSCs. Format: cell-based.
Description: as §7, §8, §9

The conditions of data set [12]: after which rapid antidepressant effects occur; ref Lester et al., 2012; Janssen Research and Development, 2019; cited from earlier work.
The mark [13] stands for this setting: Figure 2B1, purified protein, pH 7.0, 3× PBS, Hill fit.
[14] abbreviates: Figure 2B2, purified protein, pH 7.0, 3× PBS, Hill fit.
[15] abbreviates: Figure 5C, sub-μM S-ketamine, linear fit, average of 10 cells.
Where [16] appears, read: [S-ketamine] <1 μM, mean ± SD, 25 total cells from two independent transfections.

Turning to `C[N+](C)(C)[C@]1(c2ccccc2Cl)CCCCC1=O` [N,N-dimethyl-S-ketamine], the “activation of the iSketSnFR constructs” value in [1] was “did not produce robust activation”.

Regarding `CN[C@]1(c2ccccc2Cl)CCCCC1=O` [S-ketamine], the “S-Ketamine Dose-Response S-slope” value is 0.32 µM⁻¹ in data set [2] (Figure 2A, purified protein); 1.87 µM⁻¹ and 1.9 µM⁻¹ in data set [3] (Figure 2A, purified protein). Besides, the EC50 in data set [2] (setting [13]) is 10.7 ± 1.5 µM; in [3] (setting [14]) it was 1.16 ± 0.6 µM; in [5], ~10 µM. Moreover, the results for the ΔFmax/F0 in data set [2] (setting [13]) and in [3] (setting [14]) were 3.4 ± 0.1 and 3.0 ± 0.3, respectively. The “expected response ΔF/F0 in vitro” value in data set [2] (to 1 μM S-ketamine, expected from S-slope) came to 0.32. For the same compound, the S-slope was -0.23 µM⁻¹ in [3] (Figure 7A, in solution, λEx = 400 nm, pH 7); 0.49 µM⁻¹ in data set [6] (setting [15]); 0.42 ± 0.14 µM⁻¹ in data set [6] (setting [16]); 0.26 µM⁻¹ in data set [7] (setting [15]); 0.29 ± 0.04 µM⁻¹ in data set [7] (setting [16]); 0.099 µM⁻¹ and 0.1 µM⁻¹ in [8]. Also, the S-slope in [9] was determined as 0.111 µM⁻¹. For the same compound, the “S-slope = delta(F/F0)/(delta[S-ketamine])” value in data set [3] (in solution (abstract)) was determined as 1.9 µM⁻¹. Further, the “[S-slope] (magnitude)” value in data set [3] (λex = 400 nm, purified protein, pH range 6 to 8.5 (Supplementary Figure S2)) is given as ≤ 0.3. The ΔF/F0 in data set [4] is reported as ~ 0.12. Moreover, in [10], the “fluorescence increase activated by ligand” value was “no detectable fluorescence increase”. Moreover, the “time for entry into the ER after appearing in the external solution” value in [11] is on record as “within a few seconds”. In data set [11], the “time to leave the ER after removal from the extracellular solution” value is “within a few seconds”. Also, the “peak blood plasma concentrations” value in [12] was 0.2 to 1 µM.

Consider `CN[C@@]1(c2ccccc2Cl)CCCCC1=O` [R-ketamine], for which the “concentrations giving detectable responses” value in data set [3] is > 100 µM. The “S-slope lower than that of S-ketamine” value in [3] (at iSketSnFR2) was “at least 100 fold”.
